Results: US8053473B2, “Antibacterial agent comprising 7, 10-dihydroxy-8(E)-octadecenoic acid” (Kyung Pook National University Industry-Academic …, priority 2007, dated 2011)

Assays:
[1] = system: Staphylococcus aureus KCTC 1621; assay: Antibacterial activity on solid agar medium (clear zone around filter paper); conditions: 5 mg/spot, similar level with Bactroban (3 mg Mupirocin), FIG. 5
[2] = system: Bacillus subtilis ATCC 6501; assay: Antibacterial activity on solid agar medium 2; conditions: Gram positive, FIG. 7
[3] = system: Listeria monocytogenes ATCC 19111; assay: Antibacterial activity on solid agar medium 2; conditions: Gram positive, FIG. 7
[4] = system: Pseudomonas syringae pv. actinidae KACC 10659; type: cell-based; conditions: liquid medium; Gram negative; FIG. 8
[5] = system: Salmonella typhimurium KCTC 2515; assay: Antibacterial activity on solid agar medium (clear zone around filter paper)
[6] = system: Ralstonia solanacearum KACC 10475; assay: microbe, parasite or virus in culture; type: cell-based
[7] = system: Escherichia coli ATCC 8739; assay: Antibacterial activity on solid agar medium 2; conditions: Gram negative, FIG. 7
[8] = system: Pseudomonas syringae pv. sesami KACC 10649; type: cell-based; conditions: liquid medium; Gram negative; FIG. 8
[9] = system: Pseudomonas syringae pv. syringae KACC 10361; type: cell-based; conditions: liquid medium; Gram negative; FIG. 8
[10] = system: Staphylococcus epidermidis KCTC 1917; assay: Antibacterial activity on solid agar medium 2; conditions: Gram positive, FIG. 7
[11] = system: Xanthomonas campestris KACC 10490; type: cell-based; conditions: liquid medium; Gram negative; FIG. 8
[12] = system: Xanthomonas axonopodis pv. citri KACC 10443; assay: Growth inhibition in liquid medium 2; type: cell-based; conditions: Gram negative, FIG. 8
[13] = system: Corynebacterium glutamicum KACC 10784; type: cell-based; conditions: liquid medium; Gram positive; FIG. 8
[14] = system: Bacillus subtillis ATCC 6501; assay: microbe, parasite or virus in culture; type: cell-based; conditions: ATCC6501, liquid YPD medium, OD540 up to 24 hours, read-out: minimal inhibitory concentration
[15] = system: Staphylococcus aureus ATCC 6538; assay: Antibacterial activity on solid agar medium 2; conditions: Gram positive, FIG. 7
Erwinia sp. KACC 10207 = type: cell-based; conditions: liquid medium; Gram negative; FIG. 8

CCCCCCCC[C@H](O)/C=C/[C@@H](O)CCCCCC(=O)O [DOD, 7,10-dihydroxy-8(E)-octadecenoic acid]
high antibacterial activity: antibacterial activity (clear zone) [1] | antibacterial activity (clear zone) ([5]; 5 mg/spot, similar level with Bactroban (3 mg Mupirocin), FIG. 5)
< 125 µg/mL: MIC ([6]; Ralstonia solanacearum, KACC10475, 24 h, read-out: minimal inhibitory concentration) | MIC [14]
had growth inhibitory effect: growth inhibitory effect [4] | growth inhibitory effect ([6]; liquid medium, Gram negative, FIG. 8) | growth inhibitory effect [8] | growth inhibitory effect [9] | growth inhibitory effect [11] | growth inhibitory effect [12] | growth inhibitory effect [13] | growth inhibitory effect (Erwinia sp. KACC 10207)
exhibited antibacterial activity: antibacterial activity [2] | antibacterial activity [3] | antibacterial activity ([5]; Gram negative, FIG. 7) | antibacterial activity [7] | antibacterial activity [10] | antibacterial activity [15]
